Laboratory results as given in PubChem BioAssay (NCI).
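Tested at 5 concentrations; 48 h exposure; 96-well plates; endpoints linearly interpolated, else capped at highest concentration. Here, GI50 denotes the concentration required for 50% inhibition of growth. At the TGI there is no net growth.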

Key:
Test in all cases: NCI tumour cell line growth inhibition, 48 h
SNB-19 CNS = system: SNB-19 CNS
SK-MEL-28 melanoma = system: SK-MEL-28 melanoma
SK-OV-3 ovarian = system: SK-OV-3 ovarian
IGROV1 ovarian = system: IGROV1 ovarian
NCI-H226 lung = system: NCI-H226 lung
LOX IMVI melanoma = system: LOX IMVI melanoma
HOP-62 NSCLC = system: HOP-62 NSCLC
A498 renal = system: A498 renal
SK-MEL-2 melanoma = system: SK-MEL-2 melanoma
HCT-15 colon = system: HCT-15 colon
OVCAR-3 ovarian = system: OVCAR-3 ovarian
MDA-N = system: MDA-N
MDA-MB-231 breast = system: MDA-MB-231 breast
ACHN renal = system: ACHN renal

Row | SMILES | TGI (SNB-19 CNS) [µM] | TGI (SK-MEL-28 melanoma) [µM] | TGI (SK-OV-3 ovarian) [µM] | TGI (IGROV1 ovarian) [µM] | TGI (NCI-H226 lung) [µM] | TGI (LOX IMVI melanoma) [µM] | TGI (HOP-62 NSCLC) [µM] | TGI (A498 renal) [µM] | TGI (SK-MEL-2 melanoma) [µM] | TGI (HCT-15 colon) [µM] | TGI (OVCAR-3 ovarian) [µM] | TGI (MDA-N) [µM] | TGI (MDA-MB-231 breast) [µM] | TGI (ACHN renal) [µM] | GI50 (SK-MEL-28 melanoma) [µM] | GI50 (LOX IMVI melanoma) [µM] | GI50 (A498 renal) [µM] | GI50 (HCT-15 colon) [µM] | GI50 (OVCAR-3 ovarian) [µM] | GI50 (ACHN renal) [µM]
1 | Oc1c2c(c3c4c1N=CC=4CCN=3)C1(C=C(Br)C(O)C(Br)=C1)CCN2 (stereo unspecified) | > 34.8 | 21.5 | 26 | 2.86 | 9 | 3.09 | 33.4 | 23.4 | 11.8 | 4.42 | 3.12 | – | – | – | – | – | – | – | – | –
2 | Cc1cccc(Nc2nc(NNC(=O)Cc3ccccc3)nc(NNC(=O)c3ccncc3)n2)c1 | > 10 | > 10 | > 10 | > 10 | > 10 | > 10 | > 10 | – | – | > 10 | – | > 10 | > 10 | > 10 | – | – | – | – | – | –
3 | CCC(C)C(NC(=O)c1c2ccccc2nc2ccccc12)C(=O)O (stereo unspecified) | > 100 | > 100 | > 100 | > 100 | > 100 | > 100 | > 100 | > 100 | > 100 | > 100 | > 100 | – | > 100 | > 100 | – | – | – | – | – | –
4 | CCCCCCCCCCCCCCCCNc1ccc2c(c1)OCCOCCOCCOCCO2 | 14.2 | 18.8 | 9.49 | 9.41 | 7.07 | 5.42 | 7.28 | – | 4.44 | 13.5 | 8.75 | 12.8 | 11.9 | – | – | – | – | – | – | –
5 | COC(=O)C(CCSc1ccccc1)C(=O)OC | – | > 100 | > 100 | > 100 | > 100 | – | > 100 | > 100 | > 100 | > 100 | > 100 | > 100 | > 100 | > 100 | – | – | – | – | – | –
6 | CC(=O)NC(CCCOC(C)=O)C(=O)NC(CCCOC(C)=O)C(=O)NC(CCCOC(C)=O)C(=O)NC(Cc1ccc([N+](=O)[O-])cc1)C(=O)NCC(=O)OCc1ccccc1 (stereo unspecified) | > 100 | > 100 | > 100 | > 100 | > 100 | > 100 | > 100 | > 100 | > 100 | > 100 | > 100 | – | > 100 | > 100 | – | – | – | – | – | –
7 | O=C1NCC2(CCNCC2)N1 | > 100 | > 100 | > 100 | > 100 | > 100 | > 100 | > 100 | > 100 | – | > 100 | – | – | > 100 | > 100 | – | – | – | – | – | –
8 | CC(=O)O[C@]12CCCCC1C1(O)C(O)CCCC[C@H]12 (stereo partly specified) | > 100 | > 100 | > 100 | – | > 100 | > 100 | > 100 | – | > 100 | > 100 | – | – | – | > 100 | – | – | – | – | – | –
9 | Cc1ccc(C2SC(N)=Nc3c2c(C)nn3C(=O)c2ccc(Cl)cc2)cc1 (stereo unspecified) | > 10 | > 10 | > 10 | > 10 | > 10 | > 10 | > 10 | – | > 10 | > 10 | > 10 | > 10 | > 10 | > 10 | – | – | – | – | – | –
10 | COC(=O)CCSC1=CC(=O)c2nc3ccccc3c3ccnc1c23 | > 100 | 45.9 | > 100 | 34.5 | > 100 | – | > 100 | > 100 | > 70.1 | 27.9 | 11.4 | 87.2 | > 70.7 | 48.3 | – | – | – | – | – | –
11 | OCCN1CCN(c2nc(Nc3ccc(-c4nc5ccccc5[nH]4)cc3)c3cn[nH]c3n2)CC1 | – | 3.05 | – | – | – | 3.13 | – | 3.44 | – | 2.5 | 3.28 | – | – | 3.16 | 1.65 | 1.63 | 1.92 | 1.15 | 1.69 | 1.75
12 | CCCCCCCSCC1OC(n2cnc3c(N)ncnc32)C(O)C1O (stereo unspecified) | > 100 | > 100 | – | 41.8 | > 100 | > 100 | – | 32.4 | 44.8 | 22.7 | – | – | – | > 100 | – | – | – | – | – | –
13 | CN(C)C(=O)C(F)(F)C(c1ccc(C(F)(F)F)cc1)C1C(=O)N(C)C(=O)N(C)C1=O (stereo unspecified) | > 100 | > 100 | > 100 | – | > 100 | > 100 | > 100 | > 100 | > 100 | > 100 | > 100 | – | > 100 | > 100 | – | – | – | – | – | –
14 | Nc1ccn(CC(CO)CC(c2ccccc2)P(=O)(O)O)c(=O)n1 (stereo unspecified) | > 100 | > 100 | > 100 | > 100 | > 100 | > 100 | > 100 | > 100 | > 100 | > 100 | > 100 | – | – | > 100 | – | – | – | – | – | –
15 | Cc1ccc(-c2n[nH]c(=O)n2N2C(=O)C=CC2=O)cc1 | – | – | > 100 | > 100 | > 100 | – | > 100 | > 100 | > 100 | > 100 | > 100 | – | > 100 | – | – | – | – | – | – | –
16 | C=CCN(c1cc(OCc2ccccc2)c2c(c1)c(C)cn2S(=O)(=O)c1ccccc1)S(C)(=O)=O | > 100 | > 100 | > 100 | > 100 | > 100 | > 100 | > 100 | – | > 100 | > 100 | > 100 | > 100 | > 100 | > 100 | – | – | – | – | – | –
17 | COC(=O)C1CCC[C@H]2C(CO)=C(C)C(=O)[C@@H]12 (stereo partly specified) | > 100 | > 100 | > 100 | > 100 | > 100 | – | > 100 | > 100 | > 100 | > 100 | – | – | – | > 100 | – | – | – | – | – | –
18 | CCCC(=O)[O-].CCCC(=O)[O-].N.N.N.N.[Co+3].[O-][Cl+3]([O-])([O-])[O-] | > 100 | > 100 | > 100 | > 100 | – | > 100 | > 100 | > 100 | > 100 | > 100 | > 100 | – | – | > 100 | – | – | – | – | – | –
